Key:
Assay type in all cases: functional
DU-145 [1] = test: Antiproliferative activity against human DU145 cells by SRB assay
K562 [2] = test: Antiproliferative activity against human K562 cells assessed as cell growth at 500 uM by SRB assay; details: read-out: Activity
NCI-H460 = test: Antiproliferative activity against human NCI-H460 cells by SRB assay
SN12C [3] = test: Antiproliferative activity against human SN12C cells by SRB assay
CAKI-1 [4] = test: Antiproliferative activity against human Caki1 cells assessed as cell growth at 50 uM by SRB assay; details: read-out: Activity
HT-29 [5] = test: Antiproliferative activity against human HT-29 cells assessed as cell growth at 0.5 uM by SRB assay; details: read-out: Activity
CAKI-1 [6] = test: Antiproliferative activity against human Caki1 cells assessed as cell growth at 5 uM by SRB assay; details: read-out: Activity
SN12C [7] = test: Antiproliferative activity against human SN12C cells assessed as cell growth at 5 uM by SRB assay; details: read-out: Activity
MOLT-4 = test: Antiproliferative activity against human MOLT4 cells assessed as cell growth at 500 uM by SRB assay; details: read-out: Activity
SW-620 = test: Antiproliferative activity against human SW620 cells assessed as cell growth at 0.5 uM by SRB assay; details: read-out: Activity
SF-268 = test: Antiproliferative activity against human SF268 cells assessed as cell growth at 0.5 uM by SRB assay; details: read-out: Activity
OVCAR-4 = test: Antiproliferative activity against human OVCAR4 cells assessed as cell growth at 50 uM by SRB assay; details: read-out: Activity
A549 [8] = test: Antiproliferative activity against human A549 cells by SRB assay
MDA-MB-435 [9] = test: Antiproliferative activity against human MDA-MB-435 cells assessed as cell growth at 50 uM by SRB assay; details: read-out: Activity
MDA-MB-435 [10] = test: Antiproliferative activity against human MDA-MB-435 cells assessed as cell growth at 5 uM by SRB assay; details: read-out: Activity
A549 [11] = test: Antiproliferative activity against human A549 cells assessed as cell growth at 5 uM by SRB assay; details: read-out: Activity
K562 [12] = test: Antiproliferative activity against human K562 cells by SRB assay
UO-31 = test: Antiproliferative activity against human UO31 cells assessed as cell growth at 5 uM by SRB assay; details: read-out: Activity
T47D = test: Antiproliferative activity against human T47D cells assessed as cell growth at 5 uM by SRB assay; details: read-out: Activity
UACC-257 [13] = test: Antiproliferative activity against human UACC257 cells assessed as cell growth at 5 uM by SRB assay; details: read-out: Activity
SF-295 [14] = test: Antiproliferative activity against human SF295 cells by SRB assay
UACC-257 [15] = test: Antiproliferative activity against human UACC257 cells by SRB assay
SK-OV-3 [16] = test: Antiproliferative activity against human SKOV3 cells assessed as cell growth at 500 uM by SRB assay; details: read-out: Activity
UACC-257 [17] = test: Antiproliferative activity against human UACC257 cells assessed as cell growth at 50 uM by SRB assay; details: read-out: Activity
HOP-62 = test: Antiproliferative activity against human HOP62 cells assessed as cell growth at 5 uM by SRB assay; details: read-out: Activity
HT-29 [18] = test: Antiproliferative activity against human HT-29 cells by SRB assay
K562 [19] = test: Antiproliferative activity against human K562 cells assessed as cell growth at 50 uM by SRB assay; details: read-out: Activity
UACC-257 [20] = test: Antiproliferative activity against human UACC257 cells assessed as cell growth at 5 mM by SRB assay; details: read-out: Activity
SF-295 [21] = test: Antiproliferative activity against human SF295 cells assessed as cell growth at 50 uM by SRB assay; details: read-out: Activity
[22] = Antiproliferative activity against human Hs 578T cells assessed as cell growth at […] by SRB assay; details: read-out: Activity
DU-145 [23] = test: Antiproliferative activity against human DU145 cells assessed as cell growth at 0.5 uM by SRB assay; details: read-out: Activity
NCI-H322M = test: Antiproliferative activity against human NCI-H322M cells by SRB assay
[24] = Antiproliferative activity against human […] cells by SRB assay
HL-60(TB) = test: Antiproliferative activity against human HL-60(TB) cells assessed as cell growth at 500 uM by SRB assay; details: read-out: Activity
HCT-116 = test: Antiproliferative activity against human HCT116 cells by SRB assay
SK-OV-3 [25] = test: Antiproliferative activity against human SKOV3 cells by SRB assay
OVCAR-5 = test: Antiproliferative activity against human OVCAR5 cells at 5 mM by SRB assay
BT-549 = test: Antiproliferative activity against human BT549 cells assessed as cell growth at 0.5 uM by SRB assay; details: read-out: Activity
SN12C [26] = test: Antiproliferative activity against human SN12C cells assessed as cell growth at 50 uM by SRB assay; details: read-out: Activity
[27] = read-out: LC50 (the source's name)
[28] = read-out: pLC50 (the source's name) (converted)

O=C(/C=C/c1ccc(O)c(O)c1)OCCc1ccc(O)c(O)c1
GI50 (DU-145 [1]; read-out: GI50): 9.75 µM | CC50 (DU-145 [1]; [27]): > 50 µM | GI50 (DU-145 [1]; read-out: pGI50 (converted)): 9.77 µM | CC50 (DU-145 [1]; [28]): > 50.1 µM | TGI (DU-145 [1]; read-out: pTGI (converted)): 30.2 µM | growth at 500 µM (K562 [2]): 9% | GI50 (NCI-H460): 14.8 µM | CC50 (NCI-H460; [27]): > 50 µM | TGI (NCI-H460; read-out: TGI): > 50 µM | CC50 (NCI-H460; [28]): > 50.1 µM | TGI (NCI-H460; read-out: pTGI): > 50.1 µM | GI50 (SN12C [3]; read-out: GI50): 9.09 µM | CC50 (SN12C [3]; [27]): > 50 µM | TGI (SN12C [3]; read-out: TGI): > 50 µM | GI50 (SN12C [3]; read-out: pGI50 (converted)): 9.12 µM | CC50 (SN12C [3]; [28]): > 50.1 µM | TGI (SN12C [3]; read-out: pTGI): > 50.1 µM | growth at 50 µM (CAKI-1 [4]): 88% | growth at 0.5 µM (HT-29 [5]): 104% | growth at 5 µM (CAKI-1 [6]): 83% | growth at 5 µM (SN12C [7]): 80% | growth at 500 µM (MOLT-4): 39% | growth at 0.5 µM (SW-620): 98% | growth at 0.5 µM (SF-268): 94% | growth at 50 µM (OVCAR-4): 92% | GI50 (A549 [8]; read-out: GI50): 17.7 µM | CC50 (A549 [8]; [27]): > 50 µM | TGI (A549 [8]; read-out: TGI): > 50 µM | GI50 (A549 [8]; read-out: pGI50 (converted)): 17.8 µM | CC50 (A549 [8]; [28]): > 50.1 µM | TGI (A549 [8]; read-out: pTGI): > 50.1 µM | growth at 50 µM (MDA-MB-435 [9]): 89% | growth at 5 µM (MDA-MB-435 [10]): 92% | growth at 5 µM (A549 [11]): 97% | GI50 (K562 [12]; read-out: GI50): 1.56 µM | CC50 (K562 [12]; [27]): > 50 µM | TGI (K562 [12]; read-out: TGI): 19.9 µM | GI50 (K562 [12]; read-out: pGI50 (converted)): 1.55 µM | CC50 (K562 [12]; [28]): > 50.1 µM | TGI (K562 [12]; read-out: pTGI (converted)): 20 µM | growth at 5 µM (UO-31): 93% | growth at 5 µM (T47D): 102% | growth at 5 µM (UACC-257 [13]): 92% | GI50 (SF-295 [14]; read-out: GI50): 16.1 µM | CC50 (SF-295 [14]; [27]): > 50 µM | TGI (SF-295 [14]; read-out: TGI): > 50 µM | GI50 (SF-295 [14]; read-out: pGI50 (converted)): 16.2 µM | CC50 (SF-295 [14]; [28]): > 50.1 µM | TGI (SF-295 [14]; read-out: pTGI): > 50.1 µM | GI50 (UACC-257 [15]; read-out: GI50): 15.4 µM | CC50 (UACC-257 [15]; [27]): > 50 µM | TGI (UACC-257 [15]; read-out: TGI): > 50 µM | GI50 (UACC-257 [15]; read-out: pGI50 (converted)): 15.5 µM | CC50 (UACC-257 [15]; [28]): > 50.1 µM | TGI (UACC-257 [15]; read-out: pTGI): > 50.1 µM | growth at 500 µM (SK-OV-3 [16]): 79% | growth at 50 µM (UACC-257 [17]): 92% | growth at 5 µM (HOP-62): 89% | GI50 (HT-29 [18]; read-out: GI50): 28.5 µM | CC50 (HT-29 [18]; [27]): > 50 µM | TGI (HT-29 [18]; read-out: TGI): > 50 µM | GI50 (HT-29 [18]; read-out: pGI50 (converted)): 28.2 µM | CC50 (HT-29 [18]; [28]): > 50.1 µM | TGI (HT-29 [18]; read-out: pTGI): > 50.1 µM | growth at 50 µM (K562 [19]): 90% | growth at 5000 µM (UACC-257 [20]): 18% | growth at 50 µM (SF-295 [21]): 87% | growth [22]: 9% | growth at 0.5 µM (DU-145 [23]): 102% | GI50 (NCI-H322M; read-out: GI50): 28.1 µM | CC50 (NCI-H322M; [27]): > 50 µM | TGI (NCI-H322M; read-out: TGI): > 50 µM | GI50 (NCI-H322M; read-out: pGI50 (converted)): 28.2 µM | CC50 (NCI-H322M; [28]): > 50.1 µM | TGI (NCI-H322M; read-out: pTGI): > 50.1 µM | GI50 ([24]; read-out: GI50): 0.63 µM | CC50 [24, 27]: > 50 µM | TGI ([24]; read-out: TGI): 8.48 µM | GI50 ([24]; read-out: pGI50 (converted)): 0.631 µM | CC50 [24, 28]: > 50.1 µM | TGI ([24]; read-out: pTGI (converted)): 8.51 µM | growth at 500 µM (HL-60(TB)): 37% | GI50 (HCT-116; read-out: GI50): 11.2 µM | CC50 (HCT-116; [27]): > 50 µM | TGI (HCT-116; read-out: TGI): > 50 µM | GI50 (HCT-116; read-out: pGI50 (converted)): 11.2 µM | CC50 (HCT-116; [28]): > 50.1 µM | TGI (HCT-116; read-out: pTGI): > 50.1 µM | GI50 (SK-OV-3 [25]; read-out: GI50): 13.7 µM | CC50 (SK-OV-3 [25]; [27]): > 50 µM | TGI (SK-OV-3 [25]; read-out: TGI): > 50 µM | GI50 (SK-OV-3 [25]; read-out: pGI50 (converted)): 13.2 µM | CC50 (SK-OV-3 [25]; [28]): > 50.1 µM | TGI (SK-OV-3 [25]; read-out: pTGI): > 50.1 µM | Activity (OVCAR-5): 51% | growth at 0.5 µM (BT-549): 94% | growth at 50 µM (SN12C [26]): 81%
